Where two headings read alike, the source gives them in different places.
Key:
[1] = test system: P. falciparum 3D7 asexual blood stages; test: Standard 72-hour inhibitor-response (parasite proliferation) assay; assay type: cell-based; conditions: Plasmodium falciparum; 3D7, 72-hour assay; read-out: 3D7 EC50
P. falciparum clone 3D7 = test: Standard growth inhibition assay, Pf clone panel; assay type: cell-based; conditions: Plasmodium falciparum; clone 3D7, Netherlands; read-out: EC50 (nM) (95% CI)
Method: (§1) A diverse panel of P. falciparum clones, collected from four continents with varying genetic backgrounds and well-characterized susceptibilities to novel and existing antimalarials, was treated with TrtE and DHA in standard growth inhibition assays. […] Additional studies are needed to determine whether there is any similarity in mechanism between TrtE and DHA.

[2] = test system: P. falciparum clone D10 w/ yDHODH; test: Standard growth inhibition assay, Pf clone panel; assay type: cell-based; conditions: Plasmodium falciparum, D10, read-out: EC50 (nM) (95% CI)
Method: as §1

P. falciparum clone GMC1 = test: Standard growth inhibition assay, Pf clone panel; assay type: cell-based; conditions: Plasmodium falciparum; clone GMC1, Goa, India; read-out: EC50 (nM) (95% CI)
Method: as §1

P. falciparum clone HB3 = test: Standard growth inhibition assay, Pf clone panel; assay type: cell-based; conditions: Plasmodium falciparum; clone HB3, Honduras; read-out: EC50 (nM) (95% CI)
Method: as §1

[3] = test system: P. falciparum clone IPC 5202; test: Standard growth inhibition assay, Pf clone panel; assay type: cell-based; conditions: Plasmodium falciparum; clone IPC 5202, Battambang, Cambodia; read-out: EC50 (nM) (95% CI)
Method: as §1

P. falciparum clone 7G8 = test: Standard growth inhibition assay, Pf clone panel; assay type: cell-based; conditions: Plasmodium falciparum; clone 7G8, Brazil; read-out: EC50 (nM) (95% CI)
Method: as §1

P. falciparum clone NF54 = test: Standard growth inhibition assay, Pf clone panel; assay type: cell-based; conditions: Plasmodium falciparum; clone NF54, Netherlands; read-out: EC50 (nM) (95% CI)
Method: as §1

[4] = test system: P. falciparum clone IPC 3445; test: Standard growth inhibition assay, Pf clone panel; assay type: cell-based; conditions: Plasmodium falciparum; clone IPC 3445, Palin, Cambodia; read-out: EC50 (nM) (95% CI)
Method: as §1

P. falciparum clone D6 = test: Standard growth inhibition assay, Pf clone panel; assay type: cell-based; conditions: Plasmodium falciparum; clone D6, Sierra Leone; read-out: EC50 (nM) (95% CI)
Method: as §1

P. falciparum clone Dd2 = test: Standard growth inhibition assay, Pf clone panel; assay type: cell-based; conditions: Plasmodium falciparum
Method: as §1

P. falciparum clone V1/S = test: Standard growth inhibition assay, Pf clone panel; assay type: cell-based; conditions: Plasmodium falciparum, Vietnam, read-out: EC50 (nM) (95% CI)
Method: as §1

[5] = test system: P. falciparum clone TM90C2A; test: Standard growth inhibition assay, Pf clone panel; assay type: cell-based; conditions: Plasmodium falciparum, Thailand, read-out: EC50 (nM) (95% CI)
Method: as §1

Pf 3D7 = test: Parasite growth alongside mammalian cytotoxicity assays; assay type: cell-based; conditions: Plasmodium falciparum; 3D7, grown under identical conditions alongside mammalian cells; read-out: EC50 (µM) (95% CI) 3D7
Method: (§2) In preliminary experiments to evaluate cytotoxicity to mammalian cells, the murine leukemia L1210 cell line and the human liver cell line HepG2 were grown under identical conditions alongside Pf 3D7. These were treated with TrtE, the chemotherapeutic methotrexate, and DSM265, an inhibitor of parasite dihydroorotate dehydrogenase ([19]).

[6] = test system: murine leukemia L1210 cell line; test: In vitro cytotoxicity assay
Method: as §2

asexual parasites = conditions: preliminary single-step selection, data not shown
[7] = test system: Pf NF54 late-stage gametocytes (stage III to stage V); test: Late-stage gametocyte viability assay (alamarBlue); assay type: cell-based; conditions: Plasmodium falciparum, 72 h, 3 days treatment, three independent experiments
Method: (§3) Gametocytes of Pf NF54, the competent gametocyte-producing clone, were treated with TrtE as previously described ([15], [16]). […] To validate the in vitro gametocytocidal activity of TrtE, mosquito infectivity assays were conducted. […] Oocyst development in mosquitoes represents a significant bottleneck in the life cycle of Plasmodium spp. where transmission can be efficiently interrupted ([18]).
Fig 3 TrtE activity against gametocytes. Enriched, late-stage gametocytes were treated for 3 days with TrtE and then viability-tested with alamarBlue (Invitrogen) ([15], [16]). Three independent experiments (squares, triangles, and diamonds) determined the average EC50 to be 140 ± 42 nM.

[8] = test system: diverse panel of P. falciparum clones; test: Standard growth inhibition assays, whole panel; assay type: cell-based, Plasmodium falciparum; conditions: including two artemisinin-resistant clones from Western Cambodia
Method: as §1

[9] = test system: P. falciparum NF54 oocyst development in Anopheles dirus mosquitoes; test: Mosquito infectivity assay (standard membrane feeding, oocyst count); assay type: in vivo, Plasmodium falciparum; conditions: 100 nM TrtE on late-stage gametocytes, fed to Anopheles dirus, oocysts counted after 9 days, four independent experiments, P = 0.016
Method: as §3
Fig 4 TrtE inhibition of oocyst development in mosquitoes. Late-stage Pf NF54 gametocytes were incubated with 100 nM TrtE, the approximate gametocidal EC50, or left untreated. Following incubation and development to stage V, the cultures were fed to female Anopheles dirus mosquitoes using standard membrane feeding techniques. After 9 days, the mosquitoes were dissected, and oocysts were stained and counted. The infection rate was measured as the ratio of mosquitoes with one or more oocysts to the number of dissected mosquitoes. ^*P < 0.05.

[10] = test system: human liver cell line HepG2; test: In vitro cytotoxicity assay; assay type: cell-based; conditions: for EC50: Homo sapiens
Method: as §2

Compound | EC50 [1] | EC50 (P. falciparum clone 3D7) | EC50 [2] | EC50 (P. falciparum clone GMC1) | EC50 (P. falciparum clone HB3) | EC50 [3] | EC50 (P. falciparum clone 7G8) | EC50 (P. falciparum clone NF54) | EC50 [4] | EC50 (P. falciparum clone D6) | EC50 (P. falciparum clone V1/S) | EC50 [5] | also measured
C[C@H]1[C@@H](O)O[C@@H]2O[C@@]3(C)CC[C@H]4[C@H](C)CC[C@@H]1[C@@]24OO3 [DHA, dihydroartemisinin] | 0.129 nM | 0.11 nM | 0.12 nM | 0.21 nM | 0.16 nM | 0.94 nM | 0.095 nM | 0.15 nM | 0.92 nM | 0.17 nM | 0.084 nM | 0.091 nM | EC50 (P. falciparum clone Dd2; clone Dd2, SE Asia, read-out: EC50 (nM) (95% CI)): 0.14 nM
C[C@@H]1CCC2CC(=O)C[C@@H](O)CC/C=C/C=C\CC[C@H](C)OC(=O)[C@@H]3O[B-]45O[C@@H](C(=O)O[C@@H](C)CC/C=C\C=C\CC[C@H](O)CC(=O)CC6CC[C@@H](C)[C@]3(O6)O4)[C@@]1(O2)O5 [Tartrolon E] | 0.105 nM | 0.16 nM | 0.19 nM | 0.26 nM | 0.13 nM | 0.81 nM | 0.18 nM | 0.2 nM | 0.73 nM | 0.14 nM | 0.31 nM | 0.16 nM | EC50 (Pf 3D7): 0.00016 µM; Concentration inhibiting L1210 growth ([6]; L1210): sub-micromolar concentrations; Selectivity index (EC50 of L1210/EC50 3D7) ([6]; L1210 vs 3D7): 1,438; EC50 ([6]; Mus musculus, L1210, read-out: EC50 (µM) (95% CI) L1210): 0.23 µM; Hurdle to resistance under drug pressure (asexual parasites): high hurdles to resistance; EC50 [7]: 140 nM; Concentration inhibiting all clones of the panel [8]: sub-nanomolar concentrations; Mosquito infection by P. falciparum (infection rate, oocysts) [9]: significantly inhibited mosquito infection; EC50 (P. falciparum clone Dd2; DD2, read-out: EC50 (nM) (95% CI)): 0.28 nM; Selectivity index (EC50 of HepG2/EC50 3D7) ([10]; HepG2 vs 3D7): 444; EC50 ([10]; HepG2, read-out: EC50 (µM) (95% CI) HepG2): 0.071 µM; EC50 ([10]; HepG2, as printed in text, read-out: HepG2 EC50): 0.07 µM

Reference: article PMC10848769, “Tartrolon E, a secondary metabolite of a marine symbiotic bacterium, is a potent inhibitor of asexual and sexual Plasmodium falciparum” (Antimicrobial Agents and Chemotherapy, 2024)
